Among the data in ChEMBL document CHEMBL5055668 (J Med Chem, 2021) are Activity values, retold here.

Activity calls are given as the source filed them. The calls are words filed in the database; no cut-off is given here.

Data set [1] has as its system MC-38. The experiment in a line: Induction of conversion of M2-macrophages to the M1 phenotype in CM of MC38 cells treated C57BL/6 mouse BMDM cells transfected with CSF1R shRNA2 assessed as decrease in Tnf mRNA expression measured after 24 hrs by qPCR analysis. In kind it is functional, cell-based.
For data set [2], the target named is T1, Macrophage colony-stimulating factor 1 receptor (Mus musculus) (UniProt P09581).
T1 sequence (whole entry): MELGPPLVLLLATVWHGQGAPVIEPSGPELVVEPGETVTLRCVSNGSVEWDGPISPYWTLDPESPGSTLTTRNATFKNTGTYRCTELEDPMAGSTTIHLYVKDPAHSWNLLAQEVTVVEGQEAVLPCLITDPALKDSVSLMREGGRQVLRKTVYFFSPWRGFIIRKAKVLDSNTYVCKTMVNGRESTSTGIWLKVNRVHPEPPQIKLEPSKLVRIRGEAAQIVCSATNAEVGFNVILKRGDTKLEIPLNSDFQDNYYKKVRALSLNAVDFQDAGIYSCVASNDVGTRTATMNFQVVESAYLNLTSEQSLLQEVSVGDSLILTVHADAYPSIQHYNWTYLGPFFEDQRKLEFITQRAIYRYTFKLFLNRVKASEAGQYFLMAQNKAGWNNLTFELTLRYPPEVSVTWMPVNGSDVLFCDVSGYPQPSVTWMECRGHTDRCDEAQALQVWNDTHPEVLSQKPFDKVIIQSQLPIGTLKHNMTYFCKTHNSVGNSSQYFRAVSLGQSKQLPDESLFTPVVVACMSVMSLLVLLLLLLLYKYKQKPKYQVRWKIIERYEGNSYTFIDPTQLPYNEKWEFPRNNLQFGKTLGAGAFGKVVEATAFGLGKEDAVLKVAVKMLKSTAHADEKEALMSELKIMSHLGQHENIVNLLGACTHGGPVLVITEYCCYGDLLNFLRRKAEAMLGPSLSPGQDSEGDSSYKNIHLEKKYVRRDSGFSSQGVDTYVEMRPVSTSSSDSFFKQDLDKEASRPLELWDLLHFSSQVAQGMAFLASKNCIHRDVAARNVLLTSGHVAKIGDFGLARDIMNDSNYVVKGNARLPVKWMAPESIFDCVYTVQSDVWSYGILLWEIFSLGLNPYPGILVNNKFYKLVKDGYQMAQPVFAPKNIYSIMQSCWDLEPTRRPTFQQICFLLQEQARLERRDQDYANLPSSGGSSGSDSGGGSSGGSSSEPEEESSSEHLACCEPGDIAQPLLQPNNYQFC
The experiment in a line: Binding affinity to CSF-1R in C57BL/6 mouse BMDM cells at 100 nM after 1 hr by SIP assay. In kind it is cell-based.

In data set [3] the test system is BMDM. The experiment in a line: Induction of conversion of M2-macrophages to the M1 phenotype in CM of MC38 cells treated C57BL/6 mouse BMDM cells assessed as down regulation of Arg1 mRNA expression at 30 to 100 nM preincubated with culture medium of MC38 cells for 24 hrs followed by compound addition and measured after 24 hrs by qPCR analysis. In kind it is functional, cell-based. The note with it: dose 30-100 nM.

Data set [4] has as its system BMDM. The experiment in a line: Induction of conversion of M2-macrophages to the M1 phenotype in CM of MC38 cells treated C57BL/6 mouse BMDM cells assessed as upregulation of Il12 mRNA expression at 30 to 100 nM preincubated with culture medium of MC38 cells for 24 hrs followed by compound addition and measured after 24 hrs by qPCR analysis. In kind it is functional, cell-based. The note with it: dose 30-100 nM.

Data set [5] has as its system BMDM. Description: Induction of conversion of M2-macrophages to the M1 phenotype in CM of MC38 cells treated C57BL/6 mouse BMDM cells assessed as upregulation of Tnf mRNA expression at 30 to 100 nM preincubated with culture medium of MC38 cells for 24 hrs followed by compound addition and measured after 24 hrs by qPCR analysis. Format: functional, cell-based. As to conditions: dose 30-100 nM.

Data set [6] deals with THP-1. Description: Induction of conversion of M2-macrophages to the M1 phenotype in CM of HCT116 cells treated […]-differentiated human THP-1 cells assessed as down regulation of Il10 mRNA expression at 30 to 100 nM incubated for 24 hrs by qPCR analysis. Format: functional, cell-based. The note with it: dose 30-100 nM.
Data set [7] has as its system THP-1. Description: Induction of conversion of M2-macrophages to the M1 phenotype in CM of HCT116 cells treated […]-differentiated human THP-1 cells assessed as down regulation of Chil3 mRNA expression at 30 to 100 nM incubated for 24 hrs by qPCR analysis. Format: functional, cell-based. As to conditions: dose 30-100 nM.
In data set [8] the test system is THP-1. The experiment in a line: Induction of conversion of M2-macrophages to the M1 phenotype in CM of HCT116 cells treated […]-differentiated human THP-1 cells assessed as upregulation of Il6 mRNA expression at 30 to 100 nM incubated for 24 hrs by qPCR analysis. Format: functional, cell-based. The note with it: dose 30-100 nM.
For data set [9], the system named is THP-1. Description: Induction of conversion of M2-macrophages to the M1 phenotype in CM of HCT116 cells treated […]-differentiated human THP-1 cells assessed as upregulation of Nos2 mRNA expression at 30 to 100 nM incubated for 24 hrs by qPCR analysis. In kind it is functional, cell-based. The note with it: dose 30-100 nM.
The test system of data set [10] is MC-38. The experiment in a line: Antiproliferative activity against mouse MC38 cells assessed as reduction in cell viability at 10 to 100 nM incubated for 24 hrs by CCK-8 assay. Format: functional, cell-based. As to conditions: dose 10-100 nM.
The subject of data set [11] is MC-38. The experiment in a line: Induction of conversion of M2-macrophages to the M1 phenotype in CM of MC38 cells treated C57BL/6 mouse BMDM cells transfected with CSF1R shRNA2 assessed as decrease in Nos2 mRNA expression measured after 24 hrs by qPCR analysis. In kind it is functional, cell-based.
Data set [12] has as its system Mus musculus. The experiment in a line: Toxicity in C57BL/6 mouse allografted with mouse MC38 cells assessed as lung damage at 5 to 20 mg/kg, po administered every day for 2 weeks by histopathological analysis. In kind it is organism-based, MC-38. As to conditions: in vivo, 336 h, dose 5-20 mg/kg.
Data set [13] relates to Mus musculus. Description: Toxicity in C57BL/6 mouse allografted with mouse MC38 cells assessed as heart damage at 5 to 20 mg/kg, po administered every day for 2 weeks by histopathological analysis. Format: organism-based, MC-38. As to conditions: in vivo, 336 h, dose 5-20 mg/kg.
Data set [14] concerns MC-38. The experiment in a line: Antitumor activity against mouse MC38 cells allografted in C57BL6 mouse assessed as reduction in CSF-1R phosphorylation in tumor tissue at 5 to 10 mg/kg, po administered daily for 2 weeks by Western blot analysis. In kind it is functional, organism-based. As to conditions: dose 5-10 mg/kg.
Data set [15] concerns MC-38. The experiment in a line: Antitumor activity against mouse MC38 cells allografted in C57BL6 mouse assessed as decrease in Arg1 mRNA expression at 10 to 20 mg/kg, po administered daily for 2 weeks by qPCR analysis. In kind it is functional, organism-based. The note with it: dose 10-20 mg/kg.
The test system of data set [16] is MC-38. Description: Antitumor activity against mouse MC38 cells allografted in C57BL6 mouse assessed as increase in Tnf mRNA expression at 10 to 20 mg/kg, po administered daily for 2 weeks by qPCR analysis. In kind it is functional, organism-based. The note with it: dose 10-20 mg/kg.
Data set [17] concerns MC-38. Description: Antitumor activity against mouse MC38 cells allografted in C57BL6 mouse assessed as increase in Nos2 mRNA expression at 10 to 20 mg/kg, po administered daily for 2 weeks by qPCR analysis. In kind it is functional, organism-based. As to conditions: dose 10-20 mg/kg.
A further data set concerns HCT-116. Description: Antitumor activity against human HCT-116 cells xenografted in nude BALB/c mouse assessed as tumor growth inhibition at 5 to 20 mg/kg, po administered daily for 2 weeks. As to conditions: dose 5-20 mg/kg. Format: functional, organism-based.

In the case of `Cc1[nH]c(/C=C2\C(=O)Nc3cc(NC(=O)Nc4cc(C(C)(C)C)on4)ccc32)c(C)c1NC(=O)CN1CCN(C)CC1`, the result (in the data set on MC-38 [1]; in data set [2]; in the data set on BMDM [3]; in the data set on BMDM [4]; in the data set on BMDM [5]; with THP-1 [6]) was Active. Besides, the outcome in the data set on THP-1 [7], in the data set on THP-1 [8], with THP-1 [9], with MC-38 [11], in the data set with MC-38 [14] and in the data set on MC-38 [15] was Active. In addition, the outcome in the data set with MC-38 [16] and in the data set on MC-38 [17] was Active. For the same compound, the outcome with MC-38 [10] and with HCT-116 was inactive. In addition, the Activity entry in the data set with Mus musculus [12] and in the data set on Mus musculus [13] was “Non-Toxic” throughout.
